Columns and labels:
Experiment in all cases: relative viability (nuclei count vs DMSO), 5 days (fraction); higher = more cells survive
Motesanib + Olaparib = compound: CC1(C)CNc2cc(NC(=O)c3cccnc3NCc3ccncc3)ccc21 [Motesanib] + O=C(c1cc(Cc2n[nH]c(=O)c3ccccc23)ccc1F)N1CCN(C(=O)C2CC2)CC1 [Olaparib] (partner 8 µM)
How it was run: (§1)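 Lung cancer cell lines, seeded in 1536-well plates, were treated the following day by pin tool with a single drug or with five library-drug doses (not always all listed) in √10 steps on top of a fixed anchor-drug dose. Cells were fixed and nuclei stained in one step after 5 days, and nuclei were counted. Relative viability is the nuclei count for treated wells divided by that for vehicle wells, reported as medians of duplicate plates.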

[1] = compound: C[C@@]1(C(=O)Nc2ccc(F)nc2)CCCN1c1nc(Nc2cc(C3CC3)n[nH]2)c2cccn2n1 + O=C(CCCCCCC(=O)Nc1ccccc1)NO [Vorinostat] (partner 1 µM)
How it was run: as §1

Motesanib + Pemetrexed = compound: CC1(C)CNc2cc(NC(=O)c3cccnc3NCc3ccncc3)ccc21 [Motesanib] + Nc1nc2[nH]cc(CCc3ccc(C(=O)N[C@@H](CCC(=O)O)C(=O)O)cc3)c2c(=O)[nH]1 [Pemetrexed] (partner 0.2 µM)
How it was run: as §1

[2] = compound: C[C@@]1(C(=O)Nc2ccc(F)nc2)CCCN1c1nc(Nc2cc(C3CC3)n[nH]2)c2cccn2n1 + CS(=O)(=O)N1CCN(Cc2cc3nc(-c4cccc5[nH]ncc45)nc(N4CCOCC4)c3s2)CC1 [Pictilisib] (partner 1 µM)
How it was run: as §1

For HCC-827, the relative viability (Motesanib + Olaparib; first compound 0.01 µM) was 0.616, the relative viability (Motesanib + Olaparib; first compound 0.03162 µM) was 0.746 and the relative viability (Motesanib + Olaparib; first compound 0.1 µM) was 0.652. For the same cell line, the relative viability (Motesanib + Olaparib; first compound 0.3162 µM) was 0.713, the relative viability (Motesanib + Olaparib; first compound 1 µM) was 0.548 and the relative viability ([1]; first compound 0.04 µM) was 0.891. For the same cell line, the relative viability ([1]; first compound 0.1265 µM) was 0.933, the relative viability ([1]; first compound 0.4 µM) was 0.731 and the relative viability ([1]; first compound 1.265 µM) was 0.823. It also gave a relative viability (Motesanib + Pemetrexed; first compound 0.01 µM) of 0.252, a relative viability (Motesanib + Pemetrexed; first compound 0.03162 µM) of 0.301 and a relative viability (Motesanib + Pemetrexed; first compound 0.1 µM) of 0.271. For the same cell line, the relative viability (Motesanib + Pemetrexed; first compound 0.3162 µM) was 0.277, the relative viability (Motesanib + Pemetrexed; first compound 1 µM) was 0.29 and the relative viability ([2]; first compound 0.04 µM) was 0.889. For the same cell line, the relative viability ([2]; first compound 0.1265 µM) was 1.07, the relative viability ([2]; first compound 0.4 µM) was 1.1 and the relative viability ([2]; first compound 1.265 µM) was 1.

HOP-62 showed a relative viability (Motesanib + Olaparib; first compound 0.01 µM) of 0.47, a relative viability (Motesanib + Olaparib; first compound 0.03162 µM) of 0.38 and a relative viability (Motesanib + Olaparib; first compound 0.1 µM) of 0.389. The relative viability (Motesanib + Olaparib; first compound 0.3162 µM) was 0.564, the relative viability (Motesanib + Olaparib; first compound 1 µM) was 0.616 and the relative viability ([1]; first compound 0.04 µM) was 0.589. It also gave a relative viability ([1]; first compound 0.1265 µM) of 0.529, a relative viability ([1]; first compound 0.4 µM) of 0.464 and a relative viability ([1]; first compound 1.265 µM) of 0.527. It also gave a relative viability (Motesanib + Pemetrexed; first compound 0.01 µM) of 0.288, a relative viability (Motesanib + Pemetrexed; first compound 0.03162 µM) of 0.296 and a relative viability (Motesanib + Pemetrexed; first compound 0.1 µM) of 0.214. The relative viability (Motesanib + Pemetrexed; first compound 0.3162 µM) was 0.209, the relative viability (Motesanib + Pemetrexed; first compound 1 µM) was 0.173 and the relative viability ([2]; first compound 0.04 µM) was 0.882. For the same cell line, the relative viability ([2]; first compound 0.1265 µM) was 0.632, the relative viability ([2]; first compound 0.4 µM) was 0.525 and the relative viability ([2]; first compound 1.265 µM) was 0.818.

With IA-LM the relative viability (Motesanib + Olaparib; first compound 0.01 µM) was 0.757, the relative viability (Motesanib + Olaparib; first compound 0.03162 µM) was 0.834 and the relative viability (Motesanib + Olaparib; first compound 0.1 µM) was 0.722. For the same cell line, the relative viability (Motesanib + Olaparib; first compound 0.3162 µM) was 0.855, the relative viability (Motesanib + Olaparib; first compound 1 µM) was 0.822 and the relative viability ([1]; first compound 0.04 µM) was 0.914. For the same cell line, the relative viability ([1]; first compound 0.1265 µM) was 0.999, the relative viability ([1]; first compound 0.4 µM) was 0.836 and the relative viability ([1]; first compound 1.265 µM) was 0.928. The relative viability ([2]; first compound 0.04 µM) was 0.175, the relative viability ([2]; first compound 0.1265 µM) was 0.261 and the relative viability ([2]; first compound 0.4 µM) was 0.125. For the same cell line, the relative viability ([2]; first compound 1.265 µM) was 0.179.

With LC-2-ad the relative viability (Motesanib + Olaparib; first compound 0.01 µM) was 0.689, the relative viability (Motesanib + Olaparib; first compound 0.03162 µM) was 0.709 and the relative viability (Motesanib + Olaparib; first compound 0.1 µM) was 0.816. For the same cell line, the relative viability (Motesanib + Olaparib; first compound 0.3162 µM) was 0.733, the relative viability (Motesanib + Olaparib; first compound 1 µM) was 0.785 and the relative viability ([1]; first compound 0.04 µM) was 0.66. It also gave a relative viability ([1]; first compound 0.1265 µM) of 0.554, a relative viability ([1]; first compound 0.4 µM) of 0.526 and a relative viability ([1]; first compound 1.265 µM) of 0.186. It also gave a relative viability (Motesanib + Pemetrexed; first compound 0.01 µM) of 0.289, a relative viability (Motesanib + Pemetrexed; first compound 0.03162 µM) of 0.259 and a relative viability (Motesanib + Pemetrexed; first compound 0.1 µM) of 0.268. It also gave a relative viability (Motesanib + Pemetrexed; first compound 0.3162 µM) of 0.262, a relative viability (Motesanib + Pemetrexed; first compound 1 µM) of 0.256 and a relative viability ([2]; first compound 0.04 µM) of 0.248. For the same cell line, the relative viability ([2]; first compound 0.1265 µM) was 0.271, the relative viability ([2]; first compound 0.4 µM) was 0.272 and the relative viability ([2]; first compound 1.265 µM) was 0.206.

LCLC-97TM1 was tested, and the relative viability (Motesanib + Olaparib; first compound 0.01 µM) was 0.373, the relative viability (Motesanib + Olaparib; first compound 0.03162 µM) was 0.414 and the relative viability (Motesanib + Olaparib; first compound 0.1 µM) was 0.501. For the same cell line, the relative viability (Motesanib + Olaparib; first compound 0.3162 µM) was 0.476, the relative viability (Motesanib + Olaparib; first compound 1 µM) was 0.287 and the relative viability ([1]; first compound 0.04 µM) was 0.361. For the same cell line, the relative viability ([1]; first compound 0.1265 µM) was 0.28, the relative viability ([1]; first compound 0.4 µM) was 0.106 and the relative viability ([1]; first compound 1.265 µM) was 0.0755. The relative viability (Motesanib + Pemetrexed; first compound 0.01 µM) was 0.175, the relative viability (Motesanib + Pemetrexed; first compound 0.03162 µM) was 0.153 and the relative viability (Motesanib + Pemetrexed; first compound 0.1 µM) was 0.151. For the same cell line, the relative viability (Motesanib + Pemetrexed; first compound 0.3162 µM) was 0.16, the relative viability (Motesanib + Pemetrexed; first compound 1 µM) was 0.173 and the relative viability ([2]; first compound 0.04 µM) was 0.139. For the same cell line, the relative viability ([2]; first compound 0.1265 µM) was 0.151, the relative viability ([2]; first compound 0.4 µM) was 0.159 and the relative viability ([2]; first compound 1.265 µM) was 0.136.

With LCLC-103H the relative viability (Motesanib + Olaparib; first compound 0.01 µM) was 0.777, the relative viability (Motesanib + Olaparib; first compound 0.03162 µM) was 0.737 and the relative viability (Motesanib + Olaparib; first compound 0.1 µM) was 0.758. It also gave a relative viability (Motesanib + Olaparib; first compound 0.3162 µM) of 0.807, a relative viability (Motesanib + Olaparib; first compound 1 µM) of 0.742 and a relative viability ([1]; first compound 0.04 µM) of 0.763. The relative viability ([1]; first compound 0.1265 µM) was 0.62, the relative viability ([1]; first compound 0.4 µM) was 0.593 and the relative viability ([1]; first compound 1.265 µM) was 0.563. The relative viability (Motesanib + Pemetrexed; first compound 0.01 µM) was 0.458, the relative viability (Motesanib + Pemetrexed; first compound 0.03162 µM) was 0.435 and the relative viability (Motesanib + Pemetrexed; first compound 0.1 µM) was 0.429. It also gave a relative viability (Motesanib + Pemetrexed; first compound 0.3162 µM) of 0.505, a relative viability (Motesanib + Pemetrexed; first compound 1 µM) of 0.458 and a relative viability ([2]; first compound 0.04 µM) of 0.501. The relative viability ([2]; first compound 0.1265 µM) was 0.497, the relative viability ([2]; first compound 0.4 µM) was 0.366 and the relative viability ([2]; first compound 1.265 µM) was 0.441.

With LK-2 the relative viability (Motesanib + Olaparib; first compound 0.01 µM) was 0.644, the relative viability (Motesanib + Olaparib; first compound 0.03162 µM) was 0.94 and the relative viability (Motesanib + Olaparib; first compound 0.1 µM) was 0.608. It also gave a relative viability (Motesanib + Olaparib; first compound 0.3162 µM) of 0.817, a relative viability (Motesanib + Olaparib; first compound 1 µM) of 0.756 and a relative viability ([1]; first compound 0.04 µM) of 0.294. It also gave a relative viability ([1]; first compound 0.1265 µM) of 0.182, a relative viability ([1]; first compound 0.4 µM) of 0.151 and a relative viability ([1]; first compound 1.265 µM) of 0.202. It also gave a relative viability (Motesanib + Pemetrexed; first compound 0.01 µM) of 0.234, a relative viability (Motesanib + Pemetrexed; first compound 0.03162 µM) of 0.288 and a relative viability (Motesanib + Pemetrexed; first compound 0.1 µM) of 0.208. It also gave a relative viability (Motesanib + Pemetrexed; first compound 0.3162 µM) of 0.256, a relative viability (Motesanib + Pemetrexed; first compound 1 µM) of 0.171 and a relative viability ([2]; first compound 0.04 µM) of 0.574. It also gave a relative viability ([2]; first compound 0.1265 µM) of 0.565, a relative viability ([2]; first compound 0.4 µM) of 0.569 and a relative viability ([2]; first compound 1.265 µM) of 0.523.

LOU-NH91 was tested, and the relative viability (Motesanib + Olaparib; first compound 0.01 µM) was 0.925, the relative viability (Motesanib + Olaparib; first compound 0.03162 µM) was 0.98 and the relative viability (Motesanib + Olaparib; first compound 0.1 µM) was 0.88. The relative viability (Motesanib + Olaparib; first compound 0.3162 µM) was 0.943, the relative viability (Motesanib + Olaparib; first compound 1 µM) was 0.959 and the relative viability ([1]; first compound 0.04 µM) was 0.961. The relative viability ([1]; first compound 0.1265 µM) was 0.856, the relative viability ([1]; first compound 0.4 µM) was 0.747 and the relative viability ([1]; first compound 1.265 µM) was 0.711. For the same cell line, the relative viability (Motesanib + Pemetrexed; first compound 0.01 µM) was 0.357, the relative viability (Motesanib + Pemetrexed; first compound 0.03162 µM) was 0.37 and the relative viability (Motesanib + Pemetrexed; first compound 0.1 µM) was 0.373. For the same cell line, the relative viability (Motesanib + Pemetrexed; first compound 0.3162 µM) was 0.406, the relative viability (Motesanib + Pemetrexed; first compound 1 µM) was 0.382 and the relative viability ([2]; first compound 0.04 µM) was 0.492. It also gave a relative viability ([2]; first compound 0.1265 µM) of 0.478, a relative viability ([2]; first compound 0.4 µM) of 0.452 and a relative viability ([2]; first compound 1.265 µM) of 0.448.

LU99A was tested, and the relative viability (Motesanib + Olaparib; first compound 0.01 µM) was 0.284, the relative viability (Motesanib + Olaparib; first compound 0.03162 µM) was 0.268 and the relative viability (Motesanib + Olaparib; first compound 0.1 µM) was 0.271. For the same cell line, the relative viability (Motesanib + Olaparib; first compound 0.3162 µM) was 0.255, the relative viability (Motesanib + Olaparib; first compound 1 µM) was 0.263 and the relative viability ([1]; first compound 0.04 µM) was 0.368. The relative viability ([1]; first compound 0.1265 µM) was 0.245, the relative viability ([1]; first compound 0.4 µM) was 0.229 and the relative viability ([1]; first compound 1.265 µM) was 0.193. It also gave a relative viability (Motesanib + Pemetrexed; first compound 0.01 µM) of 0.2, a relative viability (Motesanib + Pemetrexed; first compound 0.03162 µM) of 0.181 and a relative viability (Motesanib + Pemetrexed; first compound 0.1 µM) of 0.185. It also gave a relative viability (Motesanib + Pemetrexed; first compound 0.3162 µM) of 0.18, a relative viability (Motesanib + Pemetrexed; first compound 1 µM) of 0.174 and a relative viability ([2]; first compound 0.04 µM) of 0.233. For the same cell line, the relative viability ([2]; first compound 0.1265 µM) was 0.217, the relative viability ([2]; first compound 0.4 µM) was 0.225 and the relative viability ([2]; first compound 1.265 µM) was 0.163.

Source: the supplement of paper PMC10307832
